What was measured:
Format in all cases: biochemical
CDK4/CycD = CDK4/CycD (Homo sapiens (Human), UniProt P11802); test: CDK4/CycD kinase inhibition (Biological Table 1)
CDK6/CycD3 = CDK6/CycD3 (Homo sapiens (Human), UniProt Q00534); test: CDK6/CycD3 kinase inhibition (Biological Table 1)
CDK2/CycE = CDK2/CycE (Homo sapiens (Human), UniProt P24941); test: CDK2/CycE kinase inhibition (Biological Table 1)
CDK2/CycA = CDK2/CycA (Homo sapiens (Human), UniProt P24941); test: CDK2/CycA kinase inhibition (Biological Table 1)
CDK5/p35 = CDK5/p35 (Homo sapiens (Human), UniProt Q00535); test: CDK5/p35 kinase inhibition (Biological Table 1)
Sequence of CDK5/p35 (Q00535 whole entry): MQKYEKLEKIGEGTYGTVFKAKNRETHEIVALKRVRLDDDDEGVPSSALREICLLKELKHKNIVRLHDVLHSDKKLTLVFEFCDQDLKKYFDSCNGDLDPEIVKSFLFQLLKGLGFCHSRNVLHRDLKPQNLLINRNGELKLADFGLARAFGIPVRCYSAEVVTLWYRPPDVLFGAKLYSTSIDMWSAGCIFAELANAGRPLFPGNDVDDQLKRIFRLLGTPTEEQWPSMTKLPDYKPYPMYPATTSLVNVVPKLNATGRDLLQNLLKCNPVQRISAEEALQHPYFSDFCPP
Sequence of CDK5/p35 (Q15078 whole entry partner): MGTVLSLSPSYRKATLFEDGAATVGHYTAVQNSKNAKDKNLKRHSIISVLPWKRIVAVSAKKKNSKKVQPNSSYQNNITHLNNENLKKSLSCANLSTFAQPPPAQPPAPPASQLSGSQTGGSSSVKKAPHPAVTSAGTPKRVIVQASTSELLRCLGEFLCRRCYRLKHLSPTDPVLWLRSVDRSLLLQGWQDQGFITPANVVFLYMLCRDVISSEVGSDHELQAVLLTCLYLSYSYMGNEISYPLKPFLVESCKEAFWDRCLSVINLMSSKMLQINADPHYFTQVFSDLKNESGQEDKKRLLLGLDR

CDK5/p25 = CDK5/p25 (Homo sapiens (Human), UniProt Q00535); test: CDK5/p25 kinase inhibition (Biological Table 2)
Sequence of CDK5/p25 (Q00535 whole entry): as the sequence (Q00535 whole entry) above

CDK7/CycH/MAT1 = CDK7/CycH/MAT1 (Homo sapiens (Human), UniProt P50613); test: CDK7/CycH/MAT1 kinase inhibition (Biological Table 2)
Sequence of CDK7/CycH/MAT1 (P50613 whole entry): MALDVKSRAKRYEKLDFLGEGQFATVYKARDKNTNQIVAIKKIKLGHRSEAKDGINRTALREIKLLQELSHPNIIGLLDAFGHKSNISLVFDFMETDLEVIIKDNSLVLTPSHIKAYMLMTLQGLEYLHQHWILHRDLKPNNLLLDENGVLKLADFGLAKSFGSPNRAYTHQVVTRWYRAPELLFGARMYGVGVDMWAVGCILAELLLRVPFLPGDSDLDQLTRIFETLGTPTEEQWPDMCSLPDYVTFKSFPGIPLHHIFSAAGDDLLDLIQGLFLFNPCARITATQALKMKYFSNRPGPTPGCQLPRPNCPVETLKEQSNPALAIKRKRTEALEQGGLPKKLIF
Sequence of CDK7/CycH/MAT1 (P51946 whole entry partner): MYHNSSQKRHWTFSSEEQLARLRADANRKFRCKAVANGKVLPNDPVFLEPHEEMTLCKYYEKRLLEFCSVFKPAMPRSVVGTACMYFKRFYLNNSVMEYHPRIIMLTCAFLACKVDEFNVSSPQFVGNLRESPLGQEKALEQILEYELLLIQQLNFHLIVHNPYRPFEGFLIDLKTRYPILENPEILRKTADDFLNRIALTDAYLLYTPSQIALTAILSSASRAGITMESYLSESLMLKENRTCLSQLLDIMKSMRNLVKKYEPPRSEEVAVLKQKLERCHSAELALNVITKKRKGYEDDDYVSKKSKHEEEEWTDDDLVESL
Sequence of CDK7/CycH/MAT1 (P51948 whole entry partner): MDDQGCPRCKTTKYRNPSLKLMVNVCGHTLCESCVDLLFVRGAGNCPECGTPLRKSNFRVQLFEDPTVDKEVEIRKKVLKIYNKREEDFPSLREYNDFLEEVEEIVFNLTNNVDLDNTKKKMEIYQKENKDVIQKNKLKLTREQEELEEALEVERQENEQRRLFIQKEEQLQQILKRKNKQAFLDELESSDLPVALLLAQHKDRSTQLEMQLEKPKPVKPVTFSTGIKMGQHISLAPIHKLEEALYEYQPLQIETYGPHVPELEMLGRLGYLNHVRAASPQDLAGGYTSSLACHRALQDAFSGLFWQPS

CDK9/CycT = CDK9/CycT (Homo sapiens (Human), UniProt P50750); test: CDK9/CycT kinase inhibition (Biological Table 2)
Sequence of CDK9/CycT (P50750 whole entry): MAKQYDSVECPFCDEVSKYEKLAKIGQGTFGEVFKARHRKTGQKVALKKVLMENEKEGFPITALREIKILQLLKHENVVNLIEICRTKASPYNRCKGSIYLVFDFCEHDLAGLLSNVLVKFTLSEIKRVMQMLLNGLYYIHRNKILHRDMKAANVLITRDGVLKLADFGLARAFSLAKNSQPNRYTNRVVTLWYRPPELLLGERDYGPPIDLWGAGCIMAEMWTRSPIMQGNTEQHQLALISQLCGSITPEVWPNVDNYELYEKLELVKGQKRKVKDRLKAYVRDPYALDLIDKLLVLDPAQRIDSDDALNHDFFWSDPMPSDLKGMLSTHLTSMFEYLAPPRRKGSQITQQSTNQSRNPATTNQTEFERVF
Sequence of CDK9/CycT (O60563 whole entry partner): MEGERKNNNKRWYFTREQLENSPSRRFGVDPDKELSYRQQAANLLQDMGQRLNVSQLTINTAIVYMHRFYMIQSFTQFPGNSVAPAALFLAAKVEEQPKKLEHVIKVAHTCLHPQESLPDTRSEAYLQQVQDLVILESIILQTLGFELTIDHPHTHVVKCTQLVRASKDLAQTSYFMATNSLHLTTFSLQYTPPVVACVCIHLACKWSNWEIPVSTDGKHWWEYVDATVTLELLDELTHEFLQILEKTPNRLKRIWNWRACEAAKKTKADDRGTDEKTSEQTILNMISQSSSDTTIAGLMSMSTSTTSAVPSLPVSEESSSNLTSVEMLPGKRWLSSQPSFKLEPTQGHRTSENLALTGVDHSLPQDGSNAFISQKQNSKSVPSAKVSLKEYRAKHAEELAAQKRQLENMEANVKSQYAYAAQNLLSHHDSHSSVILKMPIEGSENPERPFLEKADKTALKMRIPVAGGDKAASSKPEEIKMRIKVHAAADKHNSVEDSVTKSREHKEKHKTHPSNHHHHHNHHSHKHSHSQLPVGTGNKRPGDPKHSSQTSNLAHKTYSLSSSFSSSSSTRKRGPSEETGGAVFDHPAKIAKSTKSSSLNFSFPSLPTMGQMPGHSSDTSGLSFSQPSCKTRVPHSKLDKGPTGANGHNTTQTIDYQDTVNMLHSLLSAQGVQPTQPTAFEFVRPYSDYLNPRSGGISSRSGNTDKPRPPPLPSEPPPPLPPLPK

CDK4/CyclinD1 = CDK4/CyclinD1 (Homo sapiens (Human), UniProt P11802); test: CDK4/cyclinD1 kinase assay, microfluidic kinase detection (Caliper, Nanosyn); details: 12-point dose-response, ATP at Km (200 μM), enzyme 1 nM, incubation 10 hr; read-out: CDK4/Cyclin D1
Sequence of CDK4/CyclinD1 (P11802 whole entry): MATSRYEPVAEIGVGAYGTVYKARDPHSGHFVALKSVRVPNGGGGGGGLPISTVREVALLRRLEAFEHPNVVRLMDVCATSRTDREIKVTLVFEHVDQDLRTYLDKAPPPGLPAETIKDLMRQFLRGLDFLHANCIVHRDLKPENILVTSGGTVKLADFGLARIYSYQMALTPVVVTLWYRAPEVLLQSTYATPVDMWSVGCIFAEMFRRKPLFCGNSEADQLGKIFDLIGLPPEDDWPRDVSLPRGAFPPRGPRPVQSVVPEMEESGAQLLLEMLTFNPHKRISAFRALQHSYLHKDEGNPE
Sequence of CDK4/CyclinD1 (P24385 whole entry partner): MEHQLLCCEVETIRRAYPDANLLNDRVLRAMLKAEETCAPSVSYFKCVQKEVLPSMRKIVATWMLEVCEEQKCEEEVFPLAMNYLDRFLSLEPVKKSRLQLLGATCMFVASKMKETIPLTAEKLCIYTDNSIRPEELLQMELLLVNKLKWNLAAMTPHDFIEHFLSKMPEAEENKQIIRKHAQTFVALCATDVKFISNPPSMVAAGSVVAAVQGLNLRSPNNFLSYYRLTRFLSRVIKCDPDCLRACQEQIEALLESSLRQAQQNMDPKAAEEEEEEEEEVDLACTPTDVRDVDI
Description: (§1) Selected compounds disclosed herein were tested in CDK4/cyclinD1, CDK2/CycA and CDK2/cyclinE kinase assays by Nanosyn (Santa Clara, Calif.) to determine their inhibitory effect on these CDKs. The assays were performed using microfluidic kinase detection technology (Caliper Assay Platform). The compounds were tested in 12-point dose-response format in singlicate at Km for ATP. Phosphoacceptor substrate peptide concentration used was 1 μM for all assays and Staurosporine was used as the reference compound for all assays. Specifics of each assay are as described below:
CDK4/CyclinD1: Enzyme concentration: 1 nM; ATP concentration: 200 μM; Incubation time: 10 hr.

CDK6/Cyclin D3 = CDK6/Cyclin D3 (Homo sapiens (Human), UniProt Q00534); test: CDK6/Cyclin D3 kinase assay (Biological Table 3)
Sequence of CDK6/Cyclin D3 (Q00534 whole entry): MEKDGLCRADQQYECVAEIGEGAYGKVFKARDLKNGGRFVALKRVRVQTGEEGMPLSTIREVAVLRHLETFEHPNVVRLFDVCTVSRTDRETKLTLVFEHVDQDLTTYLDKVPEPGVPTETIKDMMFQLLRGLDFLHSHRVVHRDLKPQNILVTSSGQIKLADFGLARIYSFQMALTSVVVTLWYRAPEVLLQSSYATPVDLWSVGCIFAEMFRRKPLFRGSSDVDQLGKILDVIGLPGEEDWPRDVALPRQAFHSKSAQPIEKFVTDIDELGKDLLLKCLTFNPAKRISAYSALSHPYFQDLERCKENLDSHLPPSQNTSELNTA
Sequence of CDK6/Cyclin D3 (P30281 whole entry partner): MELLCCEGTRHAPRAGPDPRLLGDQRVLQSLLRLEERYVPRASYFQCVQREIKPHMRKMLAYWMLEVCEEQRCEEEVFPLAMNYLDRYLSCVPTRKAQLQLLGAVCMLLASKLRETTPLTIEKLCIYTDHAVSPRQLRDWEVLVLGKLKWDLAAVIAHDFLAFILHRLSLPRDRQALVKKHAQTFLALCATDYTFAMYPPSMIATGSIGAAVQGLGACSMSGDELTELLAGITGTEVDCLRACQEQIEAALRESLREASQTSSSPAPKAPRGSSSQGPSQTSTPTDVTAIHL
Description: [Worded in the source for another target; this target is reported under the same test.] as §1, with “assays.” for “assays. Specifics of each assay are as described below:”

CDK2/CyclinE = CDK2/CyclinE (Homo sapiens (Human), UniProt P24941); test: CDK2/cyclinE kinase assay, microfluidic kinase detection (Caliper, Nanosyn); details: 12-point dose-response, ATP at Km (100 μM), enzyme 0.28 nM, incubation 1 hr; read-out: CDK2/Cyclin E
Description: as §1
CDK2/CyclinE: Enzyme concentration: 0.28 nM; ATP concentration: 100 μM; Incubation time: 1 hr.

CDK2/CyclinA = CDK2/CyclinA (Homo sapiens (Human), UniProt P24941); test: CDK2/CycA kinase assay, microfluidic kinase detection (Caliper, Nanosyn); details: 12-point dose-response, ATP at Km (50 μM), enzyme 0.2 nM, incubation 3 hr; read-out: CDK2/Cyclin A
Description: as §1
CDK2/CyclinA: Enzyme concentration: 0.2 nM; ATP concentration: 50 μM; Incubation time: 3 hr.

CDK9/Cyclin T = CDK9/Cyclin T (Homo sapiens (Human), UniProt P50750); test: CDK9/Cyclin T kinase assay (Biological Table 3)
Sequence of CDK9/Cyclin T (P50750 whole entry): as the sequence (P50750 whole entry) above
Sequence of CDK9/Cyclin T (O60563 whole entry partner): as the sequence (O60563 whole entry partner) above

Sequence of CDK4/CycD (P11802 whole entry): as the sequence (P11802 whole entry) above
Sequence of CDK4/CycD (P24385 whole entry partner): as the sequence (P24385 whole entry partner) above
Sequence of CDK6/CycD3 (Q00534 whole entry): as the sequence (Q00534 whole entry) above
Sequence of CDK6/CycD3 (P30281 whole entry partner): as the sequence (P30281 whole entry partner) above

| SMILES | IC50 (CDK4/CycD) [µM] | IC50 (CDK6/CycD3) [µM] | IC50 (CDK2/CycE) [µM] | IC50 (CDK2/CycA) [µM] | IC50 (CDK5/p35) [µM] | IC50 (CDK5/p25) [µM] | IC50 (CDK7/CycH/MAT1) [µM] | IC50 (CDK9/CycT) [µM] | IC50 (CDK4/CyclinD1) [µM] | IC50 (CDK6/Cyclin D3) [µM] | IC50 (CDK2/CyclinE) [µM] | IC50 (CDK2/CyclinA) [µM] | IC50 (CDK9/Cyclin T) [µM] |
| --- | --- | --- | --- | --- | --- | --- | --- | --- | --- | --- | --- | --- | --- |
| CN1CCN(c2ccc(Nc3ncc4c(n3)N3C(CC4=O)C(=O)NCC3(C)C)nc2)CC1 (stereo not drawn) [Compound 1, 10,10-dimethyl-2-((5-(4-methylpiperazin-1-yl)pyridin-2-yl)amino)-6,6a,9,10-tetrahydro-5H-pyrazino[1′,2′:1,6]pyrido[2,3-d]pyrimidine-5,7(8H)-dione] | 8.06 | 30.6 | > 100 | > 100 | > 100 | > 100 | > 100 | > 100 | – | – | – | – | – |
| CN1CCN(c2ccc(Nc3ncc4c(n3)N3C(CC4)C(=O)NCC3(C)C)nc2)CC1 (stereo not drawn) [Compound 2, 10,10-dimethyl-2-((5-(4-methylpiperazin-1-yl)pyridin-2-yl)amino)-6,6a,9,10-tetrahydro-5H-pyrazino[1′,2′:1,6]pyrido[2,3-d]pyrimidin-7(8H)-one] | > 100 | > 100 | > 100 | > 100 | > 100 | > 100 | – | > 100 | – | – | – | – | – |
| CN1CCN(c2ccc(Nc3ncc4c(n3)N3C(CC4=O)C(=O)NCC34CCCCC4)nc2)CC1 (stereo not drawn) [Compound 3] | > 100 | > 100 | > 100 | > 100 | > 100 | > 100 | > 100 | > 100 | – | – | – | – | – |
| CN1CCN(c2ccc(Nc3ncc4c(n3)N3C(CC4)C(=O)NCC34CCCCC4)nc2)CC1 (stereo not drawn) [Compound 4, 2′-((5-(4-methylpiperazin-1-yl)pyridin-2-yl)amino)-6′,6a′,8′,9′-tetrahydrospiro[cyclohexane-1,10′-pyrazino[1′,2′:1,6]pyrido[2,3-d]pyrimidin]-7′(5′H)-one] | 47.7 | 75.9 | > 100 | 86.4 | > 100 | > 100 | > 100 | > 100 | – | – | – | – | – |
| CN1CCN(c2ccc(Nc3ncc4c(n3)N3C(CC4=O)C(=O)NCC34CCCC4)nc2)CC1 (stereo not drawn) [Compound 5, 2′-((5-(4-methylpiperazin-1-yl)pyridin-2-yl)amino)-6′,6a′,8′,9′-tetrahydrospiro[cyclopentane-1,10′-pyrazino[1′,2′:1,6]pyrido[2,3-d]pyrimidine]-5′,7′-dione] | > 100 | > 100 | > 100 | > 100 | > 100 | > 100 | > 100 | > 100 | – | – | – | – | – |
| CN1CCN(c2ccc(Nc3ncc4c(n3)N3CCNC(=O)C3CC4=O)nc2)CC1 (stereo not drawn) [Compound 6, 2-((5-(4-methylpiperazin-1-yl)pyridin-2-yl)amino)-6,6a,9,10-tetrahydro-5H-pyrazino[1′,2′:1,6]pyrido[2,3-d]pyrimidine-5,7(8H)-dione] | 14.4 | 50.4 | > 100 | > 100 | > 100 | > 100 | > 100 | > 100 | – | – | – | – | – |
| CN1CCN(c2ccc(Nc3ncc4cc5n(c4n3)C3(CCCCC3)Cn3ccnc3-5)nc2)CC1 [Compound 25, N-(5-(4-Methylpiperazin-1-yl)pyridin-2-yl)-5′H -spiro[cyclohexane-1,6′-imidazo[2″,1″:3′,4′]pyrazino[1′,2′:1,5]pyrrolo[2,3-d]pyrimidin]-9′-amine] | – | – | – | – | – | – | – | – | 0.03 | 0.1 | 99 | 59 | 6.3 |
| CN1CCN(c2ccc(Nc3ncc4c(n3)N3C(=NCC35CCCCC5)C(=O)N4)nc2)CC1 [Compound 27, 2′-((5-(4-Methylpiperazin-1-yl)pyridin-2-yl)amino)-5′H-spiro[cyclohexane-1,9′-imidazo[2,1-h]pteridin]-6′(8′H)-one] | – | – | – | – | – | – | – | – | 9.4 | 21 | > 100 | > 100 | > 100 |
| CN1CCN(c2ccc(Nc3ncc4cc5n(c4n3)C3(C=NC5)CCCCC3)nc2)CC1 [Compound 31, N-(5-(4-Methylpiperazin-1-yl)pyridin-2-yl)-6′H-spiro[cyclohexane-1,9′-pyrazino[1′,2′:1,5]pyrrolo[2,3-d]pyrimidin]-2′-amine] | – | – | – | – | – | – | – | – | 0.0006 | 0.001 | 0.04 | 0.1 | 0.04 |
| CN1CCN(c2ccc(Nc3ncc4cc5n(c4n3)C3(CCCCC3)C(=O)NC5)nc2)CC1 [Compound 33, 2′-((5-(4-Methylpiperazin-1-yl)pyridin-2-yl)amino)-6′,7′-dihydro-8′H-spiro[cyclohexane-1,9′-pyrazino [1′,2′:1,5]pyrrolo[2,3-d]pyrimidin]-8′-one] | – | – | – | – | – | – | – | – | 0.006 | 0.02 | 4 | 2 | 3 |
| CN1CCN(c2ccc(Nc3ncc4cc5n(c4n3)C3(CCOCC3)CNC5=O)nc2)CC1 [Compound 34, 2′-((5-(4-Methylpiperazin-1-yl)pyridin-2-yl)amino)-2,3,5,6,7′,8′-hexahydro-6′H-spiro [pyran-4,9′-pyrazino [1′,2′:1,5]pyrrolo [2,3-d]pyrimidin]-6′-one] | – | – | – | – | – | – | – | – | 0.02 | 0.02 | 23 | 14 | 0.4 |
| O=C1NCC2(CCCCC2)n2c1cc1cnc(N[C@H]3CC[C@H](N4CCN(CC5CC5)CC4)CC3)nc12 [Compound 36, 2′-(((1R,4R)-4-(4-(Cyclopropylmethyl)piperazin-1-yl)cyclohexyl)amino)-7′,8′-dihydro-6′H-spiro [cyclohexane-1,9′-pyrazino[1′,2′:1,5]pyrrolo[2,3-d]pyrimidin]-6′-one] | – | – | – | – | – | – | – | – | 0.004 | 0.03 | 0.3 | 0.1 | 0.002 |
| CN1CCN([C@H]2CC[C@H](Nc3ncc4cc5n(c4n3)C3(CCCCC3)CNC5=O)CC2)CC1 [Compound 37, 2′-(((1R,4R)-4-(4-Methylpiperazin-1-yl)cyclohexyl)amino)-7′,8′-dihydro-6′H-spiro[cyclohexane-1,9′-pyrazino[1′,2′:1,5]pyrrolo[2,3-d]pyrimidin]-6′-one] | – | – | – | – | – | – | – | – | 0.006 | 0.04 | 0.4 | 0.02 | 0.003 |
| CO[C@H]1CC[C@@]2(CC1)CNC(=O)c1cc3cnc(Nc4ccc(N5CCN(C)CC5)cn4)nc3n12 [Compound 38, (1S,4S)-4-Methoxy-2′-((5-(4-methylpiperazin-1-yl)pyridin-2-yl)amino)-7′,8′-dihydro-6′H-spiro[cyclohexane-1,9′-pyrazino[1′,2′:1,5]pyrrolo [2,3-d]pyrimidin]-6′-one] | – | – | – | – | – | – | – | – | 0.007 | 0.01 | 14 | 5 | 0.2 |
| CO[C@H]1CC[C@]2(CC1)CNC(=O)c1cc3cnc(Nc4ccc(N5CCN(C)CC5)cn4)nc3n12 [Compound 39, (1R,4R)-4-Methoxy-2′-((5-(4-methylpiperazin-1-yl)pyridin-2-yl)amino)-7′,8′-dihydro-6′H-spiro [cyclohexane-1,9′-pyrazino[1′,2′:1,5]pyrrolo [2,3-d]pyrimidin]-6′-one] | – | – | – | – | – | – | – | – | 0.06 | 0.09 | 33 | 19 | 0.2 |
| O=C1NCC2(CCCCC2)n2c1cc1cnc(N[C@H]3CC[C@@H](N4CCN(CC5CC5)CC4)CC3)nc12 [Compound 40, 2′-(((1S,4S)-4-(4-(Cyclopropylmethyl)piperazin-1-yl)cyclohexyl)amino)-7′,8′-dihydro-6′H-spiro [cyclohexane-1,9′-pyrazino[1′,2′:1,5]pyrrolo[2,3-d]pyrimidin]-6′-one] | – | – | – | – | – | – | – | – | 0.09 | 0.5 | 5 | 2 | 0.05 |
| CN1CCN([C@H]2CC[C@@H](Nc3ncc4cc5n(c4n3)C3(CCCCC3)CNC5=O)CC2)CC1 [Compound 41, 2′-(((1S,4S)-4-(4-Methylpiperazin-1-yl)cyclohexyl)amino)-7′,8′-dihydro-6′H-spiro[cyclohexane-1,9′-pyrazino[1′,2′:1,5]pyrrolo[2,3-d]pyrimidin]-6′-one] | – | – | – | – | – | – | – | – | 0.14 | 0.8 | 6 | 2 | 0.07 |

— US10829490B2, “Substituted dihydropyrazino[1 ′,2′:1,5]pyrrolo[2,3-d]pyrimidine-based antiproliferative agents” (G1 Therapeutics, Inc., priority 2016, dated 2020)
